Measurements from US20070015799A1, “Glyoxalase inhibitors” (priority 2003, published 2007).

What was measured:
[1] = biological target: T1, Recombinant human glyoxalase I (Homo sapiens, UniProt Q04760); test: Glyoxalase I inhibition assay (96-well kinetic spectrophotometric assay, 240 nm); assay type: biochemical; conditions: for IC50: concentration giving 50% of the vehicle control response; for inhibition at 20 µM: 20 μM compound, Vmax relative to control without inhibitor, pH 6.6, 25° C.
T1 construct: made in house; host or cells: E. coli
T1 sequence (Q04760 2-184 limits assumed): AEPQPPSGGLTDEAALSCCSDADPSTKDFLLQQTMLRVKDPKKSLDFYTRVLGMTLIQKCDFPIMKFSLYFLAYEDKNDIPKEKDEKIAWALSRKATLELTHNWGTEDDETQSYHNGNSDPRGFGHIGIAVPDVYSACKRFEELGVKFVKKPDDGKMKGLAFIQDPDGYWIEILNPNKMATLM
Text: Glyoxalase I catalyses the formation of S-D-lactoylglutathione from the hemithioacetal that forms non-enzymatically from methylglyoxal and reduced glutathione (GSH). The standard literature assay is a cuvette-based spectrophotometric method using the product of glyoxalase I, S-D-lactoylglutathione, as the chromophore (240 nm) (Racker, J. Biol. Chem. 190, 685-686 (1951); Principato et al., Biochem International 6, 249-255 (1983)). This literature method was modified for use as a 96-well plate, kinetic assay.
The buffer (0.1M potassium phosphate buffer pH 6.6) and inhibitors are added to appropriate wells of a 96 well plate. Methylglyoxal (prepared in potassium phosphate buffer pH 6.6) and reduced glutathione (prepared in potassium phosphate buffer pH 6.6) are added to appropriate wells. These reagents are incubated for 15 minutes, shaking at room temperature to allow the formation of the hemithioacetal substrate of glyoxalase I. Recombinant human glyoxalase I (expressed in E. coli. and purified by S-hexylglutathione-agarose chromatography as described in Ridderstorm M. and Mannervik B., Biochem J. 314, 463-467 (1996)) is added and the plate is shaken briefly, before being placed in a Spectra Max 190 microplate spectrophotometer (Molecular Devices) at 25° C. Absorbance is monitored at 240 nm, with readings being taken every 30 seconds. The reaction is monitored for 15 minutes and PathCheck® measurements are taken on completion of the assay and the absorbance values normalized to a 1 cm pathlength. The integral software determines the Vmax using the first 20 readings. S-hexylglutathione is used as a positive control in the assays.
Data are expressed as a percentage of the control Vmax, measured in the absence of inhibitor.
Compounds iv, A, ix and E from examples 1 to 4 above respectively were subjected to the above glyoxalase I binding assay at a concentration of 20 μM (20 micromolar). Inhibitory effects are expressed in table 2 as either IC50 values, defined as the concentration, in μM, of the compound that results in 50% of the vehicle control response, or as the percentage of the vehicle control response at the highest concentration of compound tested.

[2] = test system: HL60 (human promyelocytic leukaemia) cells; test: HL60 cell assay (WST-1 growth inhibition); assay type: cell-based; conditions: for % proliferation inhibition in HL60s: highest concentration tested (range 20-1.25 μM), mean of six replicates; for IC50: concentration giving 50% of the vehicle control response
Description: HL60 (human promyelocytic leukaemia) cells were seeded (50 μl/well) at a density between 0.25-0.4×10^5/ml in a 96 multi-well plate. Twenty four hours later 50 μl. of the relevant compound dilution made up in culture medium was added to the wells (final concentration range 20-1.25 μM in 0.1% DMSO). After incubating at 37° C. in a 5% CO2 atmosphere for a further 72 hours, assessment of growth inhibitory effects of compounds was measured using a colorimetric assay that is based on the cleavage of the tetrazolium salt WST-1 (Roche) by mitochondrial dehydrogenase in viable cells. WST-1 reagent (10 μl) was added to each well and the plate was agitated for 1 min. After a 3-4 hour incubation at 37° C. in a 5% CO2 incubator the absorbance at 450 nm was read spectrophotometrically, after subtraction of a reference wavelength absorbance, at […].
Compounds iv, ix and E from examples 1, 3 and 4 above respectively were subjected to the above cell assay. Results were the mean of six replicates and were expressed as the percentage of the DMSO vehicle control response. Inhibitory effects are expressed in table 3 in the form of either IC50 values, which was defined as the concentration (μM) of compound that results in 50% of the vehicle control response, or as the % of vehicle control response at the highest concentration of compound tested.

[3] = Homo sapiens, HL-60, 72 hours incubation

**Q.** With O=C(O)C(Sc1ccc(CN(O)C(=O)c2ccccc2)cc1)c1ccccc1 (stereo not shown) [A, {4-[(Benzoyl-hydroxy-amino)-methyl]-phenylsulfanyl)-phenyl-acetic acid] as the molecule, how does the IC50 [1] read?
**A.** Its IC50 is 9.7 µM.

**Q.** For COc1ccc(-c2cc(-c3ccccc3)nc(SC(C(=O)O)c3ccccc3)c2C#N)cc1 (stereo not shown) [Compound 2], which inhibition at 20 µM [1] is on record?
**A.** Its inhibition at 20 µM is no less than 30%.

**Q.** Which inhibition at 20 µM [1] does the source give for Cc1ccc(-c2cc(-c3ccccc3)c(C#N)c(SCC(=O)Nc3ccc(C(=O)O)cc3)n2)cc1 [Compound 9] here?
**A.** Its inhibition at 20 µM is no less than 30%.

**Q.** For N#Cc1c(-c2ccccc2)cc(-c2cccs2)nc1SC(C(=O)O)c1ccccc1 (stereo not shown) [Compound 14], which inhibition at 20 µM [1] is on record?
**A.** The inhibition at 20 µM was no less than 30%.

**Q.** How did the inhibition at 20 µM [1] turn out when N#Cc1c(-c2ccc(Cl)cc2)cc(-c2cccs2)nc1SC(C(=O)O)c1ccccc1 (stereo not shown) [Compound 1] was run?
**A.** Its inhibition at 20 µM is no less than 30%.

**Q.** With O=C(O)c1ccccc1CSc1ccc(CN(O)C(=O)c2ccccc2)cc1 [E, 2-{4-[(Benzoyl-hydroxy-amino)-methyl]-phenylsulfanylmethyl}-benzoic acid] as the molecule, how does the IC50 [1] read?
**A.** The IC50 was 1.9 to 2.26 µM.

**Q.** And the “% proliferation inhibition in HL60s” value ([2]; 72 hours incubation)?
**A.** The value was 4%.

**Q.** O=C(CSc1ccccc1C(=O)O)c1ccc(-c2ccccc2)cc1 [Compound 3, 2-(2-Biphenyl-4-yl-2-oxo-ethylsulfanyl)-benzoic acid] was tested. Which inhibition at 20 µM [1] did it give?
**A.** Its inhibition at 20 µM is no less than 30%.

**Q.** With N#Cc1c(-c2cccs2)cc(-c2cccs2)nc1SC(C(=O)O)c1ccccc1 (stereo not shown) [Compound 13] as the molecule, how does the inhibition at 20 µM [1] read?
**A.** Its inhibition at 20 µM is no less than 30%.

**Q.** Which IC50 ([2]; 72 hours incubation) does the source give for CCOC(=O)c1ccccc1SCC(=O)c1ccc(-c2ccccc2)cc1 [ethyl ester of compound 3] here?
**A.** Its IC50 is 7.5 µM.

**Q.** And the “% proliferation inhibition in HL60s” value ([2]; 72 hours incubation)?
**A.** Its value is 72%.

**Q.** For COc1ccc(-c2cc(-c3ccccc3)nc(SCc3ccccc3C(=O)O)c2C#N)cc1 [Compound 4], which inhibition at 20 µM [1] is on record?
**A.** Its inhibition at 20 µM is no less than 30%.

**Q.** What does the source list for COC(=O)c1ccccc1CSc1ccc(CN(O)C(=O)c2ccccc2)cc1 [Compound ix, 2-{4-[(Benzoyl-hydroxy-amino)-methyl]-phenylsulfanylmethyl}-benzoic acid methyl ester]?
**A.** inhibition at 20 µM [1]: 0%; IC50 [2, 3]: 15 µM

**Q.** For CC(C)C(Sc1nc(-c2ccccc2)cc(-c2ccccc2)c1C#N)C(=O)O (stereo not shown) [Compound 25], which inhibition at 20 µM [1] is on record?
**A.** Its inhibition at 20 µM is no less than 30%.

**Q.** COc1ccc(-c2cc(-c3cccs3)nc(SC(C(=O)O)c3ccccc3)c2C#N)cc1 (stereo not shown) [Compound 11] was tested. Which inhibition at 20 µM [1] did it give?
**A.** The inhibition at 20 µM was no less than 30%.

**Q.** How did the inhibition at 20 µM [1] turn out when CCOC(=O)C(Sc1ccc(CN(O)C(=O)c2ccccc2)cc1)c1ccccc1 (stereo not shown) [iv, {4-[(Benzoyl-hydroxy-amino)-methyl]-phenylsulfanyl}-phenyl-acetic acid ethyl ester] was run?
**A.** The inhibition at 20 µM was 28.5%.

**Q.** And the IC50 [2, 3]?
**A.** Its IC50 is 8.3 µM.

**Q.** And the “% proliferation inhibition in HL60s” value ([2]; 72 hours incubation)?
**A.** The value was 80%.
